Data set [1] is described as follows: Inhibition of PDE1.
Data set [2] relates to Rattus norvegicus. The experiment in a line: Antiinflammatory activity in Sprague-Dawley rat assessed as inhibition of carrageenan-induced paw edema at 50 mg/kg, po treated 60 mins before carrageenan challenge measured after 90 mins. It is filed as functional. (In general: Carrageenan injected into the paw causes an acute inflammation.)
For data set [3], the system named is Rattus norvegicus. The experiment in a line: Antiinflammatory activity in Sprague-Dawley rat assessed as inhibition of carrageenan-induced paw edema at 50 mg/kg, po treated 60 mins before carrageenan challenge measured after 180 mins. It is filed as functional.
The test system of data set [4] is Rattus norvegicus. The experiment in a line: Antiinflammatory activity in Sprague-Dawley rat assessed as inhibition of carrageenan-induced paw edema at 50 mg/kg, ip treated 60 mins before carrageenan challenge measured after 90 mins. It counts as functional. Conditions: route intraperitoneal.
Data set [5] has as its system Rattus norvegicus. Briefly: Antiinflammatory activity in Sprague-Dawley rat assessed as inhibition of carrageenan-induced paw edema at 50 mg/kg, ip treated 60 mins before carrageenan challenge measured after 180 mins. It is filed as functional. Conditions: route intraperitoneal.
The subject of data set [6] is Rattus norvegicus. Briefly: Toxicity in Sprague-Dawley rat assessed as gastrointestinal ulceration at 200 mg/kg, po once daily for 5 days. To be noted: in vivo, 120 h. Details: dose 200 mg/kg, route oral. It is filed as organism-based.

The term pIC50 denotes −log10 of the IC50, conventionally taken in molar units. A high value points to a low IC50. The term inhibition in vivo denotes the percentage by which the read-out fell short of the control.

pIC50: −log10 of the molar value.

For the molecule `COc1ccc(-c2csc3ncn4c(=O)c5ccccc5nc4c23)cc1`, in data set [1], the pIC50 is 4.17. Also, the inhibition in vivo at 50 mg/kg worked out at 57% with Rattus norvegicus [2], 71% in the data set on Rattus norvegicus [3], 69% with Rattus norvegicus [4] and 74% in the data set on Rattus norvegicus [5]. Further, in the data set on Rattus norvegicus [6], the Activity entry was “Non-toxic”.

With `COc1ccc(-c2cc(-c3ccccc3)nc3ncn4c(=O)c5cc(Br)cc(Br)c5nc4c23)cc1`, the pIC50 in data set [1] was 4.47. Further, the inhibition in vivo at 50 mg/kg with Rattus norvegicus [2] is 76%; in the data set with Rattus norvegicus [3] it was 82%; in the data set with Rattus norvegicus [4], 78%; in the data set on Rattus norvegicus [5], 86%. For the same molecule, the Activity result with Rattus norvegicus [6] is “Non-toxic”.

Regarding `O=c1c2ccccc2nc2c3c(-c4ccc(Cl)cc4)csc3ncn12`, the pIC50 in data set [1] was 3.91. For the same molecule, the inhibition in vivo at 50 mg/kg stood at 37% with Rattus norvegicus [2], 53% in the data set with Rattus norvegicus [3], 42% with Rattus norvegicus [4] and 57% with Rattus norvegicus [5]. Besides, in the data set with Rattus norvegicus [6], the Activity entry is given as “Non-toxic”.

For the molecule `O=c1c2ccccc2nc2c3c4c(sc3ncn12)CCCC4`, the pIC50 in data set [1] is 3.64. In addition, the inhibition in vivo at 50 mg/kg in the data set with Rattus norvegicus [2] came out at 70%; in the data set on Rattus norvegicus [3], 75%; in the data set on Rattus norvegicus [4] it was 71%; with Rattus norvegicus [5], 81%. In addition, the Activity result with Rattus norvegicus [6] was “Non-toxic”.

For the molecule `COc1ccc(-c2cc(-c3cccc([N+](=O)[O-])c3)c3c(ncn4c(=O)c5cc(Br)cc(Br)c5nc34)n2)cc1`, the pIC50 in data set [1] is 4.14. The inhibition in vivo at 50 mg/kg is 65% with Rattus norvegicus [2], 74% in the data set with Rattus norvegicus [3], 68% in the data set with Rattus norvegicus [4] and 78% in the data set on Rattus norvegicus [5]. Moreover, the Activity entry in the data set with Rattus norvegicus [6] was “Non-toxic”.

The molecule `Cc1ccc(-c2csc3ncn4c(=O)c5ccccc5nc4c23)cc1` had a pIC50 in data set [1] of 3.64. Moreover, the inhibition in vivo at 50 mg/kg was 48% in the data set with Rattus norvegicus [2], 62% in the data set with Rattus norvegicus [3], 51% in the data set on Rattus norvegicus [4] and 68% with Rattus norvegicus [5]. In the data set on Rattus norvegicus [6], the Activity result is “Non-toxic”.

With `Cc1sc2ncn3c(=O)c4ccccc4nc3c2c1C`, the pIC50 in data set [1] is 3.53. Besides, the inhibition in vivo at 50 mg/kg in the data set on Rattus norvegicus [2] turned out to be 74%; with Rattus norvegicus [3] it was 84%; in the data set with Rattus norvegicus [4], 76%; in the data set with Rattus norvegicus [5], 86%. Also, in the data set on Rattus norvegicus [6], the Activity result was “Non-toxic”.

The values above are taken from ChEMBL document CHEMBL1152602, “A new therapeutic approach in Parkinson's disease: some novel quinazoline derivatives as dual selective phosphodiesterase 1 inhibitors and anti-inflammatory agents” (Bioorg Med Chem, 2009).
